Here are results for two molecules from US10668048B2, “Compounds for inhibiting bacterial growth via phosphatidylglycerol binding” (Wichita State University, priority 2016, dated 2020).

Series [1] has as its system Staphylococcus aureus. Kind of series: MIC in cation-adjusted Muller Hinton culture. The class given is cell-based. Particulars: no growth after 24 hours. Here is the method: (§1) MICs were determined in cation-adjusted Muller Hinton culture. Standard CLSI protocol for serial dilutions of liptin concentrations were used to determine the MIC, starting at 0.01 OD. Two different experimental cultures were used and each data point measured in triplicate.

A further series has as its system Pseudomonas aeruginosa. Kind of series: MIC in cation-adjusted Muller Hinton culture. The format is cell-based. Particulars: no growth after 24 hours. On the procedure: as §1
For series [2], the system named is Escherichia coli. Kind of series: MIC in cation-adjusted Muller Hinton culture. The format is cell-based. The following applies: no growth after 24 hours. On the procedure: as §1
The subject of series [3] is Mycobacterium smegmatis. Kind of series: MIC in cation-adjusted Muller Hinton culture. The class given is cell-based. Particulars: no growth after 24 hours. On the procedure:
as §1

The subject of series [4] is Klebsiella pneumoniae. Kind of series: MIC in cation-adjusted Muller Hinton culture. The following applies: no growth after 24 hours. The class given is cell-based. On the procedure:
as §1

For series [5], the system named is Acinetobacter baumannii. The experiment in a line: MIC in cation-adjusted Muller Hinton culture. Particulars: no growth after 24 hours. The format is cell-based. On the procedure: as §1
Another series deals with S. aureus. Kind of series: BacLight Bacterial Membrane Potential kit, plasma membrane depolarization. The class given is cell-based. The following applies: one half the liptins' MICs; concentration dependent. On the procedure:
(§2) The Molecular Probes BacLight® Bacterial Membrane Potential kit was used to detect changes in the polarization of the bacterial plasma membrane upon inoculation of bacteria with varying concentrations of liptins 1h or 1k. […] CCCP (carbonyl cyanide 3-chlorophenylhydrazone) is a proton ionophore that destroys plasma membrane potential and as such is a positive control. […] With plasma membrane depolarization the bacterial cell loses its ability to synthesize ATP and proteins. Additionally loss of membrane potential stops the ability for cell replication due to an inability for proper placement of divisome proteins in the plasma membrane. […] Thus, it is possible that the liptin's mechanism of action is a result of their deleterious effect on the functioning of electron transport proteins found in the plasma membrane.

The next series has as its system E. coli. Described as above. The class given is cell-based. Particulars: one half the liptins' MICs; concentration dependent. Here is the method: as §2
Series [6] has as its system MRSA. Kind of series: MBC in cation-adjusted Muller Hinton culture. The class given is cell-based, Methicillin-resistant S. aureus. On the procedure: (§3) Minimum bactericidal concentration (MBC) were determined in cation-adjusted Muller Hinton culture. Standard CLSI protocol for serial dilutions of liptin concentrations were used to determine the MBC, starting at 0.01 OD. Two different experimental cultures were used and each data point measured in triplicate.

For series [7], the system named is Staphylococcus aureus. Kind of series: MBC in cation-adjusted Muller Hinton culture. The format is cell-based. On the procedure: as §3
Series [8] deals with Escherichia coli. The experiment in a line: MBC in cation-adjusted Muller Hinton culture. The class given is cell-based. Here is the method: as §3
In series [9] the test system is Mycobacterium smegmatis. Kind of series: MBC in cation-adjusted Muller Hinton culture. The format is cell-based. Here is the method: as §3
Series [10] concerns Klebsiella pneumoniae. Kind of series: MBC in cation-adjusted Muller Hinton culture. The class given is cell-based. Here is the method: as §3
For series [11], the system named is Acinetobacter baumannii. Kind of series: MBC in cation-adjusted Muller Hinton culture. The class given is cell-based. Here is the method:
as §3

Series [12] relates to Staphylococcus aureus. The experiment in a line: Live-Dead stain (BacLight SYTO 9 / propidium iodide). The format is cell-based. Particulars: 5 μM, 90 minutes. On the procedure:
(§4) Molecular Probes BacLight© kits containing the SYTO 9 green-fluorescent dye and propidium iodide red-fluorescent dye were used to detect live or dead bacteria after ninety minute exposure of bacteria to liptins 1h or 1k. Bacteria in Muller Hinton culture were grown to an OD=0.3, were inoculated with liptins 1h and 1k and after ninety minutes stained with a mixture of the above dyes and affixed to a slide to be examined under a light microscope (40×) to determine the number of live and dead cells (green colored cells considered alive and red-colored cells considered dead). Data was calculated based upon an average of 5 different plate counts from each slide, and is based on a percent of total bacteria counted (live and dead). Control sample contains no liptin.

Series [13] deals with Escherichia coli. Described as above. The format is cell-based. The following applies: 10 μM, 90 minutes. On the procedure:
as §4

Series [14] deals with Mycobacterium smegmatis. The description is as above. The following applies: 5 μM, 90 minutes. The class given is cell-based. Here is the method: as §4
The test system of series [15] is Klebsiella pneumoniae. The description is as above. The class given is cell-based. The following applies: 5 μM, 90 minutes. Here is the method:
as §4

For series [16], the system named is Acinetobacter baumannii. The description is as above. The class given is cell-based. The following applies: 5 μM, 90 minutes. On the procedure: as §4
Series [17] relates to Gram-positive and Gram-negative bacteria. The experiment in a line: Growth curves in BHI culture with liptins 1h-k. The class given is cell-based. Particulars: one inoculation. Here is the method: Growth curves in BHI culture were generated (not shown) from liquid shake-flask cultures using absorbance measurements at 600 nm at different concentrations of liptins 1h-k. Uninoculated control flasks were used as blanks. Absorbance values of 0.1 OD unit was considered reasonable threshold for positive growth. The use of the nutrient-rich BHI culture allowed us to measure the effects of the small structural differences in liptins 1h-k on bacterial growth rates over long periods of time. […] Liptin exposure appears to stop bacterial growth, as evidenced by long lag phases, which increase with liptin concentration, and growth rates and maximum cell densities are decreased with liptin treatment.

In series [18] the test system is A549 (lung carcinoma epithelial) cells. Kind of series: LDH release cytotoxicity assay. The format is cell-based. The following applies: near 15 μM. Here is the method: (§5) Toxicity Studies of human HeLa (vaginal carcinoma) and A549 (lung carcinoma epithelial) cells with Liptins 1h and 1k.
(§6) Eukaryote cell toxicity was determined using a Pierce LDH assay kit including the Chemical Compound-Mediated Cytotoxicity assay. This kit measures cell death by measuring the amount of lactate dehydrogenase released from cells. Lactate dehydrogenase (LDH) is a cytosolic enzyme present in many different types of cells. When the plasma membrane is damaged, LDH is released into cell culture media. The released LDH can be quantified by a coupled enzymatic reaction. First, LDH catalyzes the conversion of lactate to pyruvate via reduction of NAD+ to NADH. Second, diaphorase uses NADH to reduce a tetrazolium salt (INT) to a red formazan product. Therefore, the level of formazan formation is directly proportional to the amount of released LDH in the medium.
On the technique in general: LDH leaks from cells whose membrane has failed.

The test system of series [19] is human HeLa (vaginal carcinoma) cells. Kind of series: LDH release cytotoxicity assay. The class given is cell-based. The following applies: up to about 15 μM. Here is the method:
as §5, §6

Series [20] relates to MRSA. Kind of series: MIC in cation-adjusted Muller Hinton culture. The class given is cell-based, Methicillin-resistant S. aureus. Particulars: no growth after 24 hours. On the procedure:
as §1

For series [21], the system named is Gram-negative and Gram-positive bacteria. The experiment in a line: MIC/MBC in Muller Hinton culture, summary over the bacteria tested. The class given is cell-based. Here is the method:
as §1, §3

The subject of series [22] is MRSA. Kind of series: Live-Dead stain (BacLight SYTO 9 / propidium iodide). The class given is cell-based, Methicillin-resistant S. aureus. The following applies: 90 minutes. On the procedure: as §4
Series [23] is described as follows: Inorganic phosphate anion binding in DMF solution. An excerpt: Liptins 2a-2d (FIG. 2A) have been prepared and characterized, but not published. However, example syntheses of several precursors required for the preparation of liptins 2a-2d, via precursors 7-8, utilizing soluble copper catalyst developed in our laboratory to couple the two aromatic rings and to elaborate the ring structure is based upon our previous experience, as is our methodology to efficiently ureidoalkylate the bis-phenol intermediates (FIG. 5). […] In contrast, inorganic phosphate anion bound more tightly to 2c (Ka=10^3 M^−1), indicating the anion binding unit with […] linking the two phenolic oxygens was a complementary fit for phosphate anion. By adding two additional methylene groups to the bridge linking the two rings [i.e., now (CH2)5, 2d], the size of the pocket better accommodates the PG head group, leading to increased […] with a Ka≈500 M^−1 in DMF. To further increase binding affinity, we changed the 3-hydroxypropane para-substituent into a 2,3-propane diol para-substituent (seen in 8 prepared from 7, FIG. 5). This increased the number of possible interactions between the liptin and the PG glycerol hydroxyls and reduced possible conformational constraints in the binding pocket when only two hydroxyl groups are present. […]

The nature of series [24]: Liptin-PG binding in solution (ITC and/or 1H NMR titration). The following applies: ITC; DMF/5% CHCl3; 1:1 binding stoichiometry. Here is the method:
The lipid binding ability of liptins 1-3 (FIG. 2A) have been investigated in solution using isothermal titration calorimetry (ITC) and/or ^1H NMR. Stoichiometry of binding was accomplished with Job plots using ^1H NMR. […] The use of organic solvents allowed the determination of binding motif using ^1H NMR.
Liptins 1b, 1e, 2c, 2d, 3a, 3c in DMF/5% CHCl3; 3e in 50% DMSO, 45% CHCl3, 5% CH3OH.
Liptins 1h and 1i 40% DMSO, 60% CHCl3, 3f in 20% DMSO, 80% CHCl3.

Structures are written as SMILES. Values after ≈ are worked out from the molar mass of the structure shown.

A word on the MIC: it is the least concentration at which growth counts as inhibited. Lower therefore signals greater potency. A word on the MBC: it is the lowest tested concentration that kills the bacteria rather than only halting them. The low end stands for more potent killing, the high end for less potent killing. In the case of `CCCCCCNC(=O)Cc1ccc2c(c1)CNCCCCNCc1cc(CC(=O)NCCCCCC)ccc1OCCCCO2` [Liptin 1k], the MIC is 2 µM (≈ 1.27 µg/mL) in the series with Staphylococcus aureus [1]; 8 µM (≈ 5.1 µg/mL) against Pseudomonas aeruginosa; 1.5 µM (≈ 0.955 µg/mL) against Escherichia coli [2]; 2 µM (≈ 1.27 µg/mL) in the series on Mycobacterium smegmatis [3]; 2.5 µM (≈ 1.59 µg/mL) in the series with Klebsiella pneumoniae [4]; 2 µM (≈ 1.27 µg/mL) in the series with Acinetobacter baumannii [5]. In the series with MRSA [20], this molecule showed a minimum inhibitory concentration (MIC) of 2.5 µM (≈ 1.59 µg/mL). The “plasma membrane depolarization (red/green fluorescence ratio)” value in the series on S. aureus and with E. coli was “large membrane depolarization” in each case. Moreover, the MBC against MRSA [6] was 11.5 µM (≈ 7.32 µg/mL); in the series with Staphylococcus aureus [7], 9.5 µM (≈ 6.05 µg/mL); with Escherichia coli [8] it was 7.5 µM (≈ 4.78 µg/mL); in the series on Mycobacterium smegmatis [9], 9.5 µM (≈ 6.05 µg/mL); with Klebsiella pneumoniae [10] it was 9.5 µM (≈ 6.05 µg/mL); against Acinetobacter baumannii [11], 7.5 µM (≈ 4.78 µg/mL). Besides, the Dead in the series on Staphylococcus aureus [12] was determined as 42%; in the series on Escherichia coli [13] it was 65%; in the series on Mycobacterium smegmatis [14] it was 100%; in the series with Klebsiella pneumoniae [15], 100%; with Acinetobacter baumannii [16] it was 97%; in the series with MRSA [22] (5 μM) it was 70%. The Dead in the series on MRSA [22] (10 μM) was 100%. The Live was found to be 58% in the series on Staphylococcus aureus [12]; 35% in the series with Escherichia coli [13]; 0% in the series on Mycobacterium smegmatis [14]; 0% in the series with Klebsiella pneumoniae [15]; 3% in the series on Acinetobacter baumannii [16]; 30% in the series with MRSA [22] (5 μM). Besides, the Live with MRSA [22] (10 μM) worked out at 0%. Also, in [17], the “antibacterial activity from growth curves” value is on record as “most potent”. The “cytotoxicity (LDH release)” value in series [18] is reported as “around 8%”. Moreover, in series [19], the “cell toxicity (LDH release)” value is reported as “no cell toxicity”. The “MICs determined for the 6 bacteria” value in series [21] fell in the range of 1.5 to 2.5 µM.
Turning to `O=C(NCc1cc(CCCO)cc2c1OCOc1c(cc(CCCO)cc1CNC(=O)Nc1ccccc1)CCC2)Nc1ccccc1` [Liptin 2c], in [23], the “Ka for inorganic phosphate anion” value is 10^3 M^−1. Besides, in series [24], the Ka stood at 420 M⁻¹.
